Assay results from ChEMBL document CHEMBL5214900, “Design, Synthesis, and Biological Evaluation of Membrane-Active Bakuchiol Derivatives as Effective Broad-Spectrum Antibacterial Agents” (J Med Chem, 2021).
In brackets after ≈: the same amount, converted by molar mass.

What was measured:
Staphylococcus aureus [1] = assay: Antibacterial activity against Staphylococcus aureus ATCC 29213 assessed as inhibition of bacterial growth incubated for 24 hrs by CLSI based broth dilution method; type: functional
Staphylococcus aureus [2] = assay: Antibacterial activity against methicillin-resistant Staphylococcus aureus N315 assessed as inhibition of bacterial growth incubated for 24 hrs by CLSI based broth dilution method; type: functional
Staphylococcus aureus [3] = assay: Antibacterial activity against methicillin-resistant Staphylococcus aureus NCTC10442 assessed as inhibition of bacterial growth incubated for 24 hrs by CLSI based broth dilution method; type: functional
Escherichia coli = assay: Antibacterial activity against Escherichia coli ATCC 25922 assessed as inhibition of bacterial growth incubated for 24 hrs by CLSI based broth dilution method; type: functional
[4] = Hemolytic activity in rabbit RBC measured after 1 hrs by multimode reader assay; type: toxicity, cell-based, Oryctolagus cuniculus, Erythrocyte; settings: rabbit red blood cells (erythrocytes)
Pseudomonas aeruginosa = assay: Antibacterial activity against Pseudomonas aeruginosa ATCC 9027 assessed as inhibition of bacterial growth incubated for 24 hrs by CLSI based broth dilution method; type: functional
Acinetobacter baumannii [5] = assay: Antibacterial activity against Acinetobacter baumannii ATCC 17978 assessed as inhibition of bacterial growth incubated for 24 hrs by CLSI based broth dilution method; type: functional
Acinetobacter baumannii [6] = assay: Antibacterial activity against Acinetobacter baumannii R2889 assessed as inhibition of bacterial growth incubated for 24 hrs by CLSI based broth dilution method; type: functional
Klebsiella pneumoniae [7] = assay: Antibacterial activity against Klebsiella pneumoniae ATCC 10031 assessed as inhibition of bacterial growth incubated for 24 hrs by CLSI based broth dilution method; type: functional
Klebsiella pneumoniae [8] = assay: Antibacterial activity against Klebsiella pneumoniae ATCC 14581 assessed as inhibition of bacterial growth incubated for 24 hrs by CLSI based broth dilution method; type: functional

| SMILES | MIC (Staphylococcus aureus [1]) [µg/mL] | MIC (Staphylococcus aureus [2]) [µg/mL] | MIC (Staphylococcus aureus [3]) [µg/mL] | MIC (Escherichia coli) [µg/mL] | HC50 at 1 h [4] [µg/mL] | MIC (Pseudomonas aeruginosa) [µg/mL] | MIC (Acinetobacter baumannii [5]) [µg/mL] | MIC (Acinetobacter baumannii [6]) [µg/mL] | MIC (Klebsiella pneumoniae [7]) [µg/mL] | MIC (Klebsiella pneumoniae [8]) [µg/mL] |
| --- | --- | --- | --- | --- | --- | --- | --- | --- | --- | --- |
| C=C[C@@](C)(/C=C/c1ccc(OCCCCNCCCCCCCCCC)cc1)CCC=C(C)C | 50 (≈ 107 µM) | 12.5 (≈ 26.7 µM) | 50 (≈ 107 µM) | > 100 | > 200 | – | – | – | – | – |
| C=C[C@@](C)(/C=C/c1ccc(OCCCCN2CCN(CCCN(C)C)CC2)cc1)CCC=C(C)C | 1.56 (≈ 3.24 µM) | 0.78 (≈ 1.62 µM) | 3.12 (≈ 6.49 µM) | 3.12 (≈ 6.49 µM) | 52 | 50 (≈ 104 µM) | 6.25 (≈ 13 µM) | 6.25 (≈ 13 µM) | 1.56 (≈ 3.24 µM) | 1.56 (≈ 3.24 µM) |
| C=C[C@@](C)(/C=C/c1ccc(OCCCCCCCCCCBr)cc1)CCC=C(C)C | > 50 | > 50 | > 50 | > 100 | > 200 | – | – | – | – | – |
| C=C[C@@](C)(/C=C/c1ccc(OCCCCNCCSC)cc1)CCC=C(C)C | 0.78 (≈ 1.94 µM) | 0.78 (≈ 1.94 µM) | 1.56 (≈ 3.88 µM) | 50 (≈ 124 µM) | 32.5 | – | – | – | – | – |
| C=C[C@@](C)(/C=C/c1ccc(OCCCCNCC)cc1)CCC=C(C)C | 1.56 (≈ 4.39 µM) | 0.78 (≈ 2.19 µM) | 1.56 (≈ 4.39 µM) | 12.5 (≈ 35.2 µM) | 21.8 | – | – | – | – | – |
| C=C[C@@](C)(/C=C/c1ccc(OCCCCNCCCC)cc1)CCC=C(C)C | 1.56 (≈ 4.07 µM) | 1.56 (≈ 4.07 µM) | 1.56 (≈ 4.07 µM) | 12.5 (≈ 32.6 µM) | 32.4 | – | – | – | – | – |
| C=C[C@@](C)(/C=C/c1ccc(OCCCCN2CCN(C)CC2)cc1)CCC=C(C)C | 1.56 (≈ 3.8 µM) | 3.12 (≈ 7.61 µM) | 3.12 (≈ 7.61 µM) | > 100 | 104 | – | – | – | – | – |
| C=C[C@@](C)(/C=C/c1ccc(OCCCN(C)C)cc1)CCC=C(C)C | 6.25 (≈ 18.3 µM) | 6.25 (≈ 18.3 µM) | 6.25 (≈ 18.3 µM) | > 100 | 88.5 | – | – | – | – | – |
| C=C[C@@](C)(/C=C/c1ccc(OCCCC[N+](C)(CCCC)CCCC)cc1)CCC=C(C)C.[I-] | 1.56 | 0.78 | 0.39 | 12.5 | 40.6 | – | – | – | – | – |
| C=C[C@@](C)(/C=C/c1ccc(OCCCCCCCCN(CC)CC)cc1)CCC=C(C)C | 3.12 (≈ 7.11 µM) | 1.56 (≈ 3.55 µM) | 1.56 (≈ 3.55 µM) | > 100 | 83.5 | – | – | – | – | – |
| C=C[C@@](C)(/C=C/c1ccc(OCCCCN(C)CCCN(C)C)cc1)CCC=C(C)C | 1.56 (≈ 3.66 µM) | 1.56 (≈ 3.66 µM) | 3.12 (≈ 7.32 µM) | 3.12 (≈ 7.32 µM) | 32.5 | 12.5 (≈ 29.3 µM) | 1.56 (≈ 3.66 µM) | 1.56 (≈ 3.66 µM) | 1.56 (≈ 3.66 µM) | 1.56 (≈ 3.66 µM) |
| C=C[C@@](C)(/C=C/c1ccc(O)cc1)CCC=C(C)C [BAKUCHIOL] | 6.25 (≈ 24.4 µM) | 3.12 (≈ 12.2 µM) | 3.12 (≈ 12.2 µM) | > 100 | 89.7 | > 50 | > 50 | > 50 | 12.5 (≈ 48.8 µM) | > 50 |
| C=C[C@@](C)(/C=C/c1ccc(OCCCCN(CCCC)CCCC)cc1)CCC=C(C)C | > 50 | > 50 | > 50 | > 100 | > 200 | – | – | – | – | – |
| C=C[C@@](C)(/C=C/c1ccc(OCCCC[N+](C)(C)C)cc1)CCC=C(C)C.[I-] | 0.78 | 0.78 | 0.78 | 6.25 | 34.2 | – | – | – | – | – |
| C=C[C@@](C)(/C=C/c1ccc(OCCCCNCCCCCC)cc1)CCC=C(C)C | 1.56 (≈ 3.79 µM) | 0.78 (≈ 1.89 µM) | 1.56 (≈ 3.79 µM) | 100 (≈ 243 µM) | 120 | – | – | – | – | – |
| C=C[C@@](C)(/C=C/c1ccc(OCCCCN(CC)CC)cc1)CCC=C(C)C | 3.12 (≈ 8.15 µM) | 3.12 (≈ 8.15 µM) | 3.12 (≈ 8.15 µM) | > 100 | 109 | – | – | – | – | – |

| SMILES | MIC (Staphylococcus aureus [1]) [µg/mL] | MIC (Staphylococcus aureus [2]) [µg/mL] | MIC (Staphylococcus aureus [3]) [µg/mL] | MIC (Escherichia coli) [µg/mL] | HC50 at 1 h [4] [µg/mL] | MIC (Pseudomonas aeruginosa) [µg/mL] | MIC (Acinetobacter baumannii [5]) [µg/mL] | MIC (Acinetobacter baumannii [6]) [µg/mL] | MIC (Klebsiella pneumoniae [7]) [µg/mL] | MIC (Klebsiella pneumoniae [8]) [µg/mL] |
| --- | --- | --- | --- | --- | --- | --- | --- | --- | --- | --- |
| C=C[C@@](C)(/C=C/c1ccc(OCCCCBr)cc1)CCC=C(C)C | > 50 | > 50 | > 50 | > 100 | > 200 | – | – | – | – | – |
| C=C[C@@](C)(/C=C/c1ccc(OCCCCCCCCCCN(CC)CC)cc1)CCC=C(C)C | 12.5 (≈ 26.7 µM) | 3.12 (≈ 6.68 µM) | 3.13 (≈ 6.68 µM) | > 100 | > 200 | – | – | – | – | – |
| C=C[C@@](C)(/C=C/c1ccc(OCCCC[N+](C)(CC)CC)cc1)CCC=C(C)C.[I-] | 1.56 | 0.39 | 0.78 | 12.5 | 57 | – | – | – | – | – |
| C=C[C@@](C)(/C=C/c1ccc(OCCCCNCCCCCCCC)cc1)CCC=C(C)C | 6.25 (≈ 14.2 µM) | 1.56 (≈ 3.55 µM) | 3.12 (≈ 7.11 µM) | > 100 | > 200 | – | – | – | – | – |
| C=C[C@@](C)(/C=C/c1ccc(OCCCCCCBr)cc1)CCC=C(C)C | > 50 | > 50 | > 50 | > 100 | > 200 | – | – | – | – | – |
| C=C[C@@](C)(/C=C/c1ccc(OCCCCN(Cc2ccccn2)Cc2ccccn2)cc1)CCC=C(C)C | 3.12 (≈ 6.13 µM) | 1.56 (≈ 3.06 µM) | 1.56 (≈ 3.06 µM) | > 100 | > 200 | – | – | – | – | – |
| C=C[C@@](C)(/C=C/c1ccc(OCCCCN(C)C)cc1)CCC=C(C)C | 1.56 (≈ 4.39 µM) | 1.56 (≈ 4.39 µM) | 3.12 (≈ 8.79 µM) | 50 (≈ 141 µM) | 41.7 | – | – | – | – | – |
| CC[C@H](C)[C@H](NC(=O)CN)C(=O)NCC(=O)N[C@@H](C)C(=O)N[C@H](C(=O)N[C@@H](CC(C)C)C(=O)N[C@@H](CCCCN)C(=O)N[C@H](C(=O)N[C@@H](CC(C)C)C(=O)N[C@H](C(=O)N[C@H](C(=O)NCC(=O)N[C@@H](CC(C)C)C(=O)N1CCC[C@H]1C(=O)N[C@@H](C)C(=O)N[C@@H](CC(C)C)C(=O)N[C@H](C(=O)N[C@@H](CO)C(=O)N[C@@H](Cc1c[nH]c2ccccc12)C(=O)N[C@H](C(=O)N[C@@H](CCCCN)C(=O)N[C@@H](CCCNC(=N)N)C(=O)N[C@@H](CCCCN)C(=O)N[C@@H](CCCNC(=N)N)C(=O)N[C@@H](CCC(N)=O)C(=O)N[C@@H](CCC(N)=O)C(N)=O)[C@@H](C)CC)[C@@H](C)CC)[C@@H](C)O)[C@@H](C)O)C(C)C)C(C)C [MELITTIN] | – | – | – | – | – | – | 3.12 (≈ 1.1 µM) | 3.12 (≈ 1.1 µM) | 6.25 (≈ 2.2 µM) | 6.25 (≈ 2.2 µM) |
| C=C[C@@](C)(/C=C/c1ccc(OCCCCN(C)CCCNC)cc1)CCC=C(C)C | 1.56 (≈ 3.78 µM) | 0.78 (≈ 1.89 µM) | 1.56 (≈ 3.78 µM) | 1.56 (≈ 3.78 µM) | 37.4 | 6.25 (≈ 15.1 µM) | 1.56 (≈ 3.78 µM) | 6.25 (≈ 15.1 µM) | 3.12 (≈ 7.57 µM) | 3.12 (≈ 7.57 µM) |
| C=C[C@@](C)(/C=C/c1ccc(OCCCCCCN(CC)CC)cc1)CCC=C(C)C | 3.12 (≈ 7.59 µM) | 0.78 (≈ 1.89 µM) | 1.56 (≈ 3.79 µM) | > 100 | 65 | – | – | – | – | – |
| C=C[C@@](C)(/C=C/c1ccc(OCCCN(CC)CC)cc1)CCC=C(C)C | 3.12 (≈ 8.46 µM) | 3.12 (≈ 8.46 µM) | 3.12 (≈ 8.46 µM) | > 100 | 102 | – | – | – | – | – |
| C=C[C@@](C)(/C=C/c1ccc(OCCCCCCCCBr)cc1)CCC=C(C)C | > 50 | > 50 | > 50 | > 100 | > 200 | – | – | – | – | – |
| C=C[C@@](C)(/C=C/c1ccc(OCCCCN2CCCC2)cc1)CCC=C(C)C | 1.56 (≈ 4.09 µM) | 1.56 (≈ 4.09 µM) | 1.56 (≈ 4.09 µM) | > 100 | 58.2 | – | – | – | – | – |
| C=C[C@@](C)(/C=C/c1ccc(OCCCBr)cc1)CCC=C(C)C | > 50 | > 50 | > 50 | > 100 | > 200 | – | – | – | – | – |
| C=C[C@@](C)(/C=C/c1ccc(OCCCN(CCCC)CCCC)cc1)CCC=C(C)C | > 50 | > 50 | > 50 | > 100 | > 200 | – | – | – | – | – |
